Experimental data published in patent publication US10941160B2, “Bromodomain inhibitors” (CELGENE QUANTICEL RESEARCH, INC., priority 2013, dated 2021).
Like-named read-outs stand apart in the source and are kept apart here. One block for each compound: values may come before it.

Columns and labels:
[1] = test system: HL-60, human proleukemia cells; assay: Cell-MTS cellular proliferation assay, HL-60; type: cell-based
Description: (§1) The Cell-MTS assay is a 7-day plate-based colorimetric assay which quantifies the amount of newly generated NADH in the presence or absence of test compound. The NADH level is used for the quantification of cancer cell proliferation.
(§2) Established cancer cell lines with a variety of driving mutations were obtained from American Type Culture Collection (ATCC) and routinely passaged according to ATCC protocols. For routine assay, these cells were seeded at densities which enabled ˜90% confluence after 7 days of culture. Raji, human Burkitts lymphoma cells, (cMYC) were seeded at 15,000 cells per 96-well. HL-60, human proleukemia cells, (NRAS, p16, p53, c-Myc amplified) were seeded at 5,000 cells per 96-well. NCI-H460, human non-small cell lung cancer cells, (KRAS, PIK3CA, STLK11, p16) were seeded at 3,000 cells per 96-well 24 hr after plating, cells received an 11-point dilution of test compound with final concentration ranges from 100 μM to 2.0 nM. […] At the end of this incubation period, 80 μL of media is removed and 20 μL of CellTiter 96® AQueous Non-Radioactive Cell Proliferation Assay soln (Promega) was added. The cells were incubated until the OD490 was >0.6. IC50 values were calculated using the IDBS XLtit software package and include background subtracted OD490 values and normalization to DMSO controls. Cellular proliferation IC50 values were uploaded and archived using the Chem Biography Platform.

[2] = test system: Raji, human Burkitts lymphoma cells; assay: Cell-MTS cellular proliferation assay, Raji; type: cell-based
Description: as §1, §2

BRD4(BD1) = BRD4(BD1) (Homo sapiens (Human), UniProt O60885); assay: In vitro enzyme inhibition assay (BRD4 AlphaScreen, H4-tetraacetyl peptide); type: binding
Description: His-tagged BRD4 was cloned, expressed and purified to homogeneity. […] BRD4 binding and inhibition was assessed by monitoring the interaction of biotinylated H4-tetraacetyl peptide (AnaSpec, H4K5/8/12/16(Ac), biotin-labeled) with the target using the AlphaScreen technology (Life Technologies). […] After 20 min incubation at room temp, Alpha streptavidin donor beads and Nickel Chelate acceptor beads were added to a final concentration of 5 μg/mL.
The ability of the compounds disclosed herein to inhibit BRD4 activity was quantified and the respective IC50 value was determined.

[3] = test system: NCI-H460, human non-small cell lung cancer cells; assay: Cell-MTS cellular proliferation assay, NCI-H460; type: cell-based
Description: as §1, §2

[4] = in vitro enzyme inhibition assay, class symbols, read-out: BRD4 IC50

Compound: Cn1cc(-c2cccc(S(N)(=O)=O)c2)c2ccc(F)cc2c1=O [Example 61, 3-(7-fluoro-2-methyl-1-oxoisoquinolin-4-yl) benzenesulfonamide]
- IC50 ([1]; Cell-MTS proliferation, 168 hr, read-out: HL-60 IC50): 0.5 to 5 µM
- IC50 ([2]; Cell-MTS proliferation, 168 hr, read-out: Raji IC50): 0.5 to 5 µM
- IC50 (BRD4(BD1); in vitro enzyme inhibition assay, read-out: BRD4 IC50): < 500 nM

Compound: CCNS(=O)(=O)c1cccc(-c2cn(C)c(=O)c3ccc(F)cc23)c1 [Example 49, N-ethyl-3-(6-fluoro-2-methyl-1-oxoisoquinolin-4yl) benzenesulfonamide]
- IC50 ([1]; Homo sapiens, HL-60, 168 h, read-out: HL-60 IC50 (μM)): 0.5 to 5 µM
- IC50 ([2]; Homo sapiens, Raji, 168 h, read-out: Raji IC50 (μM)): 0.5 to 5 µM
- IC50 (BRD4(BD1)): 500 to 5000 nM

Compound: N-[5-(cyclopropylmethoxy)-4-(7-fluoro-2-methyl-1-oxoisoquinolin-4-yl) pyrimidin-2-yl]methanesulfonamide [Example 158]
- IC50 ([1]; Cell-MTS proliferation, 168 hr, class symbols, read-out: HL-60 IC50): < 0.5 µM
- IC50 ([2]; Cell-MTS proliferation, 168 hr, class symbols, read-out: Raji IC50): < 0.5 µM
- IC50 ([3]; 168 hr, class symbols): > 5000 nM
- IC50 (BRD4(BD1); read-out: BRD4 IC50): < 500 nM

More lines, now with the values ahead:

- IC50 (BRD4(BD1); [4]): < 500 nM
Compound: Cc1cc(-c2cc(OS(N)(=O)=O)ccc2OCC2CC2)cn(C)c1=O [Example 215, [4-(cyclopropylmethoxy)-3-(1,5-dimethyl-6-oxopyridin-3-yl)phenyl] sulfamate]

- IC50 ([1]; Homo sapiens, HL-60, Cell-MTS proliferation, 168 hr, class symbols, read-out: HL-60 IC50): < 0.5 µM
- IC50 ([2]; Homo sapiens, Raji, Cell-MTS proliferation, 168 hr, class symbols, read-out: Raji IC50): < 0.5 µM
- IC50 ([3]; Homo sapiens, NCI-H460, 168 hr, class symbols): > 5000 nM
- IC50 (BRD4(BD1); [4]): < 500 nM
Compound: Cn1cc(-c2cc(S(C)(=O)=O)ncc2OCC2CC2)c2ccc(F)cc2c1=O [Example 203, 4-[5-(cyclopropylmethoxy)-2-methylsulfonylpyridin-4-yl]-7-fluoro-2-methylisoquinolin-1-one]

- IC50 ([1]; Homo sapiens, HL-60, Cell-MTS proliferation, 168 hr, read-out: HL-60 IC50): 0.5 to 5 µM
- IC50 ([2]; Homo sapiens, Raji, Cell-MTS proliferation, 168 hr, read-out: Raji IC50): > 5 µM
- IC50 ([3]; Homo sapiens, NCI-H460, 168 hr): > 5000 nM
Compound: COc1ccc(-c2cn(C)c(=O)c3cnccc23)cc1S(=O)(=O)NCc1ccccc1 [Example 54, N-benzyl-2-methoxy-5-(2-methyl-1-oxo-2,7-naphthyridin-4-yl) benzenesulfonamide]

- IC50 (BRD4(BD1); [4]): < 500 nM
Compound: Cn1cc(-c2cc(OS(N)(=O)=O)ccc2OCC2CC2)c2ccccc2c1=O [Example 214, [4-(cyclopropylmethoxy)-3-(2-methyl-1-oxoisoquinolin-4-yl)phenyl] sulfamate]
